We go through one molecule from PMC10687071 (The Journal of Biological Chemistry, 2023).

In one series the target is T1, WT EAG1 channels (Mus musculus, UniProt Q60603).
T1 construct: expressed in transfected cells; host or cells: Xenopus laevis oocytes injected with cRNA
T1 sequence (Q60603 1-989): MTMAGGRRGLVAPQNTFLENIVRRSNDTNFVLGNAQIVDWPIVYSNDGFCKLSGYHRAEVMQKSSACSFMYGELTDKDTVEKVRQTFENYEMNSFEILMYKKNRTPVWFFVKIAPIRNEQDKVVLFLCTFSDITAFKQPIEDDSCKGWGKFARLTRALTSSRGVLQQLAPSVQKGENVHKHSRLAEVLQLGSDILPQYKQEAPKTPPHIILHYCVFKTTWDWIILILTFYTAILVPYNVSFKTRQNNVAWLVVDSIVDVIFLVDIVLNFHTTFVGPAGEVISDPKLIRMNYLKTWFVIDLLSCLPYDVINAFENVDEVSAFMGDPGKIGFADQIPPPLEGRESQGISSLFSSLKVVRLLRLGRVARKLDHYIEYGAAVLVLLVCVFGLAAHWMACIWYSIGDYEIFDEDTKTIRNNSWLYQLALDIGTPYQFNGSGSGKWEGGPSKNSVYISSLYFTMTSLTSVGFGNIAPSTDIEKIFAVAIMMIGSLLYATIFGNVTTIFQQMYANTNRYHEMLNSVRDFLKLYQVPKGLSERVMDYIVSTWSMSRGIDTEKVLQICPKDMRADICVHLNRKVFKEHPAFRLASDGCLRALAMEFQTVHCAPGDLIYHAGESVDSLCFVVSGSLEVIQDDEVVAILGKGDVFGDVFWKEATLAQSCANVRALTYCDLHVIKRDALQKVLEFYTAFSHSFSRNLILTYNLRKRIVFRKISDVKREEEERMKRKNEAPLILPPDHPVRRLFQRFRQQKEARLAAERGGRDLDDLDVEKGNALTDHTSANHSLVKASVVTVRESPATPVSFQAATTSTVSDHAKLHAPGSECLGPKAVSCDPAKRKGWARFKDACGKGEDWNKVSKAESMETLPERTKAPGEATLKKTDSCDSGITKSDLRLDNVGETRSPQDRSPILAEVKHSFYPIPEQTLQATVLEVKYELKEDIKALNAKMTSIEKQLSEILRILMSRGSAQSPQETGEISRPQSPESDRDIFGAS
Briefly: TEVC recording of EAG1 currents in Xenopus oocytes, imipramine inhibition, WT channel. The conditions noted are these: IC50 for imipramine inhibition at +50 mV. It counts as cell-based. An excerpt:
(§1) The cDNA encoding wild-type (WT) mouse EAG1 channels in pGH19 vector was kindly provided by G. Robertson (University of Wisconsin-Madison, Madison, WI). The mutant ΔPAS EAG1 channel in pGH19 with the deletion of the PAS domain residues 2 to 130 was generated by Bio Basic Inc and verified by DNA sequencing (Genewiz). Mutant EAG1 channels with single amino acid substitutions were generated by Genewiz and verified by DNA sequencing. cRNA was transcribed using the T7 mMessage mMachine kit (Thermo Fisher Scientific). Defolliculated Xenopus laevis oocytes were purchased from Ecocyte Bioscience or Xenopus1 and injected with the cRNA using a Nanoinject II oocyte injector (Drummond).
(§2) For EAG1 current recordings, oocytes were placed into a handmade chamber containing a bath solution for the current recording. The currents were recorded using a TEVC technique with OC-725C amplifier (Warner Instruments) and pClamp11 software (Molecular Devices). The signals were digitized using Digidata 1550 (Molecular Devices). Patch pipettes were pulled from borosilicate glass and had resistances of 0.7 to 1.5 MΩ. The recording (bath) solution contained 96 mM NaCl, 4 mM KCl, 0.1 mM CaCl2, 1.8 mM MgCl2, and 5 mM HEPES, pH 7.5. The pipette solution contained 3 M KCl. […]

Series [1] deals with T2, Y71E mutant EAG1 channels (Mus musculus, UniProt Q60603, Y71E).
T2 construct: expressed in transfected cells; host or cells: Xenopus laevis oocytes injected with cRNA
T2 sequence (Q60603 1-989 Y71E): T1 sequence (Q60603 1-989) with Y71E
Nature of the series: TEVC recording, imipramine inhibition, Y71E mutant. It counts as cell-based. The note with it: Y71E mutant EAG1 channel, +50 mV.
From the text: as §1, §2

For series [2] the following is noted: can reach up; cited from earlier work.

Positions count from the first letter of the chain named. Values joined by “and” are separate entries in the source; they are usually repeats but may differ in a detail not shown here. Identical values can stand only once.

Take `CN(C)CCCN1c2ccccc2CCc2ccccc21` [imipramine]: the half-inhibitory concentration (IC50) (usually the concentration that inhibits the measured activity by half) was determined as 58.1 ± 9.7 µM at WT EAG1 channels and 28.5 ± 1.4 µM in series [1]. Moreover, the “Plasma levels of imipramine observed in patients” value in series [2] is ≤ 300 ng/ml and ≤ 1 μM.
